Measurements taken from patent US8957087B2, “Heterocyclic substituted acardite derivate and application thereof” (Jiangsu Provincial Institute of Materia Medica Co., Ltd., priority 2009, dated 2015).
“And” between values parts separate entries of the source, which are not always exact repeats. Identical values can stand only once. Like-named read-outs stand apart in the source and are kept apart here. Marks after values point to notes of the source that are not given here.

Tests used:
[1] = tested on: human lung cancer A549 transplantation tumor; assay type: in vivo; conditions: BALB/cA nude mice; 60 mg/kg, 6 times every week for 3 weeks; Sorafenib oral 60 mg/kg
Method: 9. Tumor inhibition rate of tested compounds on human lung cancer A549 cell transplantation model in nude mice
(§1) [Test animals] female BALB/cA nude mice, 35-40 days old, with weight of 18-22g. There were 12 mice in the negative conrol group and 6 mice in the treatment group.
(§2) The dosage of the compound was 60 mg/kg, 6 times every week for 3 weeks. […] Equal amount of normal saline was administrated in the negative control group. Observe for one week after administration.

mice S180 sarcoma = experiment: Experimental therapeutic action on S180 sarcoma mice; conditions: for Tumor growth inhibition rate (%): mice S180 sarcoma, 60 mg/kg orally for 9 days
[2] = tested on: renal carcinoma cell line GCR-1 transplanted tumor; assay type: in vivo, BALB/cA nude mice; conditions: BALB/cA nude mice; 60 mg/kg, 6 times every week for 3 weeks; Sorafenib oral 60 mg/kg
Method: 11. Tumor inhibition rate of medicines on renal carcinoma cell line GCR-1 transplanted tumor model in nude mice
as §1
[Test method] […] The dosage of the medicine was 60 mg/kg, 6 times every week for 3 weeks. […] Equal amount of normal saline was administrated in the negative control group. Observe for one week after administration.

[3] = tested on: Human colon cancer HT-29 transplantable tumor; experiment: Human colon cancer HT-29 transplantable tumor in nude mice; conditions: for Relative tumor reproduction rate T/C (%): HT-29 in nude mice
Method: Experimental therapeutic action of the compound in the present invention on Human colon cancer HT-29 transplantable tumor in nude mice.
Take eugenic tumor tissues and cut into about 1.5 mm^3, and then incoculate subcutaneously at the right armpit of nude mice under the sterile conditions. The diameter of the transplantable tumor in nude mice was determined with a vernier caliper, and the animals were divided into groups after the tumors were grown to 100-300 mm^3. Using the method of measuring the tumor diameter, dynamically observe the antitumor effects of tested materials. The diameter of the tumor was determined three times every week and the mouse weight was weighed at the same time. […] The solvent was intragastrically administrated as the control for continuous 9 times. Equal amount of control was administrated in the negative control group.
Tumor volume (TV) is calculated as: TV=½×a×b^2, wherein a and b respectively represent length and width.
Relative tumor volume (RTV) is calculated as: RTV=TVt/TV0, wherein TV0 is the tumor volume when administrated according to different cages and TVt is the tumor volume measured each time.
Relative tumor reproduction rate T/C (%) is calculated as follows:
TRTV: RTV in the treatment group; CRTV: RTV in the negative control group.
The test results used relative tumor reproduction rate T/C (%) as evaluating indicator of anti-tumor activity.

lung cancer cell A549 = experiment: Effects on the adhesive ability of lung cancer cell A549; assay type: cell-based, human; conditions: Final concentration 1 x 1.0*10^(−5) mol/L
Method: 6. Effects of tested compounds on the adhesive ability of lung cancer cell A549
[Test materials] gelatin, CCK8, poly-lysine (PLL), A549 cell stains, 1640 medium containing 10% FBS
(§3) [Tested compound] Compounds 1-38 to be tested
(§4) [Positive control medicine] Sorafenib, compounds A′, B′, C′ with no substituent or only amino formyl in A ring
(§5) The inhibition rate is calculated as follows: […]
Dosing dosing cells without cell group (gelatin adhesive OD/PLL adhesion OD)−Dosing cell group (gelatin adhesive OD/PLL adhesion OD value)
Dosing dosing cells without cell group (gelatin adhesive OD/PLL adhesion OD value)

[4] = tested on: human umbilical vein endothelial cell HUVEC; experiment: Growth of human umbilical vein endothelial cell HUVEC by CCK8 method; assay type: cell-based; conditions: Final concentration 1 x 1.0*10^(−5) mol/L
Description: 7. Effects of tested compounds on the growth of human umbilical vein endothelial cell HUVEC cell by CCK8 method
[Test materials] CCK8, human umbilical vein endothelial cell HUVEC cell, 1640 medium containing 10% FBS
as §3, §4
(§6) Relative OD value of conrol well=OD value of control well−OD value of blank well
(§7) Relative OD value of drug well=OD value of drug well−OD value of blank well

[5] = tested on: human umbilical vein endothelial cell HUVEC; experiment: Lumen formation ability of HUVEC (Matrigel method); assay type: cell-based; conditions: Final concentration 1 x 1.0*10^(−5) mol/L
Description: 8. Inhibition effects of compounds on the lumen formation ability of human umbilical vein endothelial cell HUVEC
[Experimental principles] The human umbilical vein endothelial cells have ability of spontaneously forming blood lumen on Matrigel, which can be used to simulate the process of angiogenesis in vivo. We used Matrigel method to investigate the effects of the compound on the lumen formation ability of human umbilical vein endothelial cell HUVEC.
[Test materials] HUVEC (taking generation 3 to 5 cells for experiments after obtained from primary separation and cultured at 37 under the conditions of 5% CO2), Matrigel, cell culture medium M199.
(§8) [Tested compound] Compounds 1-38
as §4, §5

Raf-1(truncated) = experiment: Raf-1 inhibitor screening by chemoluminescence method; assay type: biochemical; conditions: Final concentration 1 x 1.0*10^−5 mol/ml
Description: 1. Inhibitory activity of the compound of the present invention on raf kinase
Raf-1 inhibitor screening by chemoluminescence method
Westernblot electrophoresis apparatus Rotaryshaker
Raf-1(truncated), Magnesium/ATP Cocktail, MEK1 unactive

[6] = tested on: human liver cancer cell bel-7402 transplantation tumor; assay type: in vivo; conditions: 60 mg/kg
Method: 10. Tumor inhibition rate of tested compounds on human liver cancer cell bel-7402 transplantation tumor model in nude mice
as §1, §2

[7] = tested on: human high-metastic lung cancer cell 95D; experiment: Inhibition of human high-metastic lung cancer cell 95D migration (Boyden Chamber Transwell); assay type: cell-based; conditions: Final concentration 1 x 1.0*10^(−5) mol/L
Method: 5 Inhibition effects of compounds on human high-metastic lung cancer cell 95D migration
[Test materials] Boyden Chamber Transwell chamber (with pore size of 8 μm), human high-metastic lung cancer cell 95D cell strain, 1640 medium containing 10% FBS, 1640 medium containing no serum
as §8, §4, §5

[8] = tested on: human lung cancer cell strain A549; experiment: MTT assay, inhibition of growth of human lung cancer cell strain A549; assay type: cell-based
Method: 4. Using 3-(4,5-dimethylthiazol-2-yl)-2,5-diphenyl tetrazolium bromide assay (MTT) to detect the inhibition effects on the growth of human lung cancer cell strain A549
[Test materials] MTT working solution, F12 medium containing 10% FBS, continuous injectors
as §8, §4
The inhibition rate is calculated as follows:
as §6, §7

[9] = BALB/cA nude mice, 6 times every week for 3 weeks, Sorafenib oral 60 mg/kg
[10] = Final concentration 1 x 1.0*10^(−5) mol/L

Row | Compound | Relative tumor reproduction rate T/C (%) on human lung cancer A549 transplantation tumor in nude mice [1] | Relative tumor reproduction rate T/C (%) on human renal carcinoma GCR-1 cell transplanted tumor model in nude mice [2] | Inhibition rate, adhesion ability of human lung cancer cell A549 (lung cancer cell A549) | Inhibition rate, growth of HUVEC cell [4] | Inhibition rate, lumen formation ability of HUVEC [5] | Inhibition rate % on raf kinase (Raf-1(truncated)) | Relative tumor reproduction rate T/C (%) on human liver cancer cell bel-7402 transplantation tumor model in nude mice [6, 9] | Inhibition rate, 95D cell strain migration [7] | Inhibition rate, growth of human lung cancer cell A549 [8, 10] | Tumor growth inhibition rate (%) (mice S180 sarcoma) | Relative tumor reproduction rate T/C (%) ([3]; 60 mg/kg ig 9 times) | Inhibition rate, growth of human lung cancer cell A549 [8] | also measured
1 | CNC(=O)c1cc(Oc2ccc(NC(=O)Nc3ccc(F)c(C(F)(F)F)c3)cc2)c2cc(OC)ccc2n1 [Compound 2] | 35.3% | 23.2% | 75.15% | 13.11% | 75.14% | 61.1% | 35.4% | 85.17% | 61.11% | – | – | – | Tumor weight x ± SD (mice S180 sarcoma; 60 mg/kg ig for 9 days, day 10): 0.87 ± 0.24 g; Tumor growth inhibition rate (%) (mice S180 sarcoma; 60 mg/kg): 46.0% and 24.1%; Weight (g) Start (mice S180 sarcoma; mouse body weight at start, 60 mg/kg ig): 18.9 ± 1.7 g; Weight (g) Final (mice S180 sarcoma; mouse body weight final, 60 mg/kg ig for 9 days): 20.9 ± 2.3 g; Relative tumor reproduction rate T/C (%) ([3]; 60 mg/kg ig 9 times, 60 mg/kg): 39.45%; Weight (g) d0 ([3]; nude mouse body weight d0, 60 mg/kg): 19.9 ± 0.8 g; Weight (g) d13 ([3]; nude mouse body weight d13, 60 mg/kg ig 9 times): 21.0 ± 0.8 g; RTV ([3]; relative tumor volume, 60 mg/kg ig 9 times): 2.00 ± 0.41; TV d0 ([3]; tumor volume d0, 60 mg/kg): 133 ± 23; TV d13 ([3]; tumor volume d13, 60 mg/kg ig 9 times): 265 ± 100
2 | CNC(=O)c1nc(Oc2ccc(NC(=O)Nc3ccc(F)c(C(F)(F)F)c3)cc2)c2ccc(F)cc2n1 [Compound 5, N-(4-fluoro-3-(trifluoromethyl)phenyl)-N′-(4-(2-(N-methylaminoformoxyl)-4-(7 fluoroquinazolinyl)oxy)phenyl)urea] | 11.6% | 11.2% | 87.58% | 8.50% | 87.50% | 98.9% | 15.7% | 97.51% | 93.50% | 49.3% | 38.24% | – | –
3 | CNC(=O)c1nc(Oc2ccc(NC(=O)Nc3ccc(Br)c(C(F)(F)F)c3)cc2)c2ccc(F)cc2n1 [Compound 6, N-(4-bromo-3-(trifluoromethyl)phenyl)-N′-(4-(2-(N-methylaminoformoxyl)-4-(7 fluoroquinazolinyl)oxy)phenyl)urea] | 15.9% | 12.5% | 93.59% | 7.50% | 90.55% | 80.1% | 19.5% | 93.71% | 92.50% | 51.2% | 39.58% | – | –
4 | CNC(=O)c1ncc(Oc2ccc(NC(=O)Nc3ccc(F)c(C(F)(F)F)c3)cc2)c(OC)n1 [Compound 8, N-(4-fluoro-3-(trifluoromethyl)phenyl)-N′-(4-(2-(N-methylaminoformoxyl)-5-(4-methoxypyrimidinyl)oxy)phenyl)urea] | 30.5% | 29.1% | 61.56% | 13.67% | 78.59% | – | 30.6% | 89.56% | 60.67% | 58.2% | 37.6% | – | –
5 | O=C(Nc1ccc(Oc2ccnc3ccccc23)cc1)Nc1ccc(Cl)c(C(F)(F)F)c1 [Compound A′, reference compound] | 43.2% | 34.2% | 71.55% | 23.11% | 60.51% | – | 37.2% | 63.51% | – | – | – | 58.51% | –
6 | O=C(Nc1ccc(Oc2ccncn2)cc1)Nc1ccc(Cl)c(C(F)(F)F)c1 [Compound B′, reference compound] | 40.4% | 30.4% | 69.26% | 31.64% | 61.62% | – | – | 61.60% | – | – | – | 61.62% | Relative tumor reproduction rate T/C (%) on human liver cancer cell bel-7402 transplantation tumor model in nude mice ([6]; mouse, in vivo, po): 30.4%
7 | N-(4-fluoro-3-(trifluoromethyl)phenyl)-N′-(4-(4-pyrryl)oxy)phenyl)urea [Compound C′, reference compound] | 36.6% | 35.6% | 68.62% | 22.27% | 60.50% | – | 32.6% | 63.20% | – | – | – | 62.25% | –
